Values joined by “and” are separate entries in the source; they are usually repeats but may differ in a detail not shown here. Equal entries are not always repeated. Where two headings read alike, the source gives them in different places.
Legend:
avidin (AV) [1] = molecular target: T1, avidin (AV) (Gallus gallus, UniProt P02701); assay: Quantum yields (QY), AV complex; assay type: physicochemical
T1 construct: purchased Calbiochem (La Jolla, CA)
Description: The lifetimes (τ), steady state anisotropies (rss), time-resolved anisotropies (rt) and quantum yields (QY) of the complexes (at 20 ± 0.1°C and pH 8) were collected with a dye-labeled B7 probe concentration of 20–40 nM and 1040–2080 nM of either protein (AV or SAV) to ensure that only one binding site in the tetramer was filled with a ligand (AB1 filling model).
The QY values were obtained by using a reference fluorophore of known quantum yield and were calculated according to Parker and Rees, where the reference dye was fluorescein in 0.1N sodium hydroxide solution [46]. The emission fluorescence scans were collected from 480 nm to 700 nm with the excitation light set at 460 nm provided by the xenon arc lamp described above. These measurements were made on the AB1 complexes at high protein concentration.

streptavidin (SAV) [2] = molecular target: T2, streptavidin (SAV) (Streptomyces avidinii, UniProt P22629); assay: Stopped-flow association kinetics of dye-labeled biotin probes binding to streptavidin (F(t), rF(t); Arrhenius plots/global fitting); set-up: kcal/mol (from Arrhenius slope) / Eon for BFl: unit not given here; settings: for half-time of association, rF¯(t): probe 20 nM
T2 construct: purchased Sigma Aldrich (St. Louis, MO)
T2 sequence (P22629 25-183): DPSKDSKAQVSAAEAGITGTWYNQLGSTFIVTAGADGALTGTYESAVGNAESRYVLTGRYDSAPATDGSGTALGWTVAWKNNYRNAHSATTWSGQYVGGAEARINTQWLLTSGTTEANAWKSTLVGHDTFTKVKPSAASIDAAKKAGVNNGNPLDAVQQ
Description: These reactions were carried out in a buffered solution of 10 mM Tris-HCl, 100 mM KCl, 2.5 mM MgCl2 and 1 mM CaCl2 at pH 8 and only AV-BcO reactions included pH 9 and 10. […] The deglycosylation of AV (for comparative association reactions) was carried out using the provided standard protocol with endoglycosidase H [47], both with and without incubation of a denaturant solution (2% SDS and 1M 2-mercaptoethanol).
The reactions were collected with the SF instrument, described previously. […] The AC(t) and DC(t) data were baseline corrected before obtaining the signal ratio (Eq 4) as a function of time (ρt).
The constant AGain is the instrumental amplitude gain and was evaluated by solving ρ(t) using the known steady state anisotropy (rss) of the complexes which is equivalent to the r(t) at t = ∞; and H, obtained from the equivalent grating factor (G) for the filters and photo multiplier tubes in the SF. For the probes used in here G was 0.82 and H = (1-G)/(1+G) = 0.099. Knowing Again and H, the AC(t) and DC(t) signals can be solved for r(t) and F(t) (Eqs 4 and 5) and the normalized fluorescence, F¯(t) , and corrected fluorescence anisotropy, rF¯(t), were obtained when F¯(0) and rF¯(0) were scaled to 1 at t = 0.
The F¯(t) (Eq 6) is equivalent to (I||) + 2 (I⊥) and proportional to quantum yield (QYi), molar absorptivity (εi) and to the formation or disappearance of the emitting species Xi(t); and rF¯(t) including the steady state anisotropies (rss) of each fluorescent species (Eq 7).
The possible reaction models were discriminated by the squared residuals of the observed and calculated association traces of both fluorescence and anisotropy fluorescence signals, F¯(t) and rF¯(t) , respectively.

streptavidin (SAV) [3] = molecular target: T2, streptavidin (SAV); assay: Intrinsic lifetime, dynamic quantum yield and fraction of non-statically quenched molecules, SAV complex; assay type: physicochemical
avidin (AV) [4] = molecular target: T1, avidin (AV); assay: Intrinsic lifetime, dynamic quantum yield and fraction of non-statically quenched molecules, AV complex; assay type: physicochemical

T1 sequence (P02701 25-152): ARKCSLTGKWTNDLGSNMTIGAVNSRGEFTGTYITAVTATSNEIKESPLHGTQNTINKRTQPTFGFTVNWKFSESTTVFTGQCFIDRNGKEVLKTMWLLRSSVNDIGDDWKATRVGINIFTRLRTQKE

SMILES: NC(CCCCNC(=O)CCCC[C@@H]1SC[C@@H]2NC(=O)N[C@@H]21)C(=O)NCCCCCNC(=O)c1ccc(-c2c3cc(F)c(=O)cc-3oc3cc(O)c(F)cc23)c(C(=O)O)c1 (stereo partly drawn) [BcO, Oregon green 488 Biocytin]
- Quantum Yield QY (avidin (AV) [1]; AV complex (AB1)): 0.62 ± 0.02
- QY (avidin (AV) [1]; complex with AV): 0.62 and 0.62 ± 0.02
- dQY-AV (avidin (AV) [1]; fractional change of QY, AV complex against dye): -0.3187
- kon binding to SAV, fold faster than binding to AV (streptavidin (SAV) [2]; 25°C): 3.2 X
- rate at 4C (logarithmic value) (streptavidin (SAV) [2]; 277.15 K, follows from the SAV line (m2, b2), protein not printed in the line): 16.3
- halftime, F¯(t) (streptavidin (SAV) [2]; BcO 20 nM, SAV 200 nM, 10°C): 200.6 ms
- halftime, rF¯(t) (streptavidin (SAV) [2]; BcO 20 nM, SAV 200 nM, 10°C): 201.4 ms
- halftime, r¯(t) (streptavidin (SAV) [2]; BcO 20 nM, SAV 200 nM, 10°C): 332.7 ms
- b of the line y = m2x+b2 (streptavidin (SAV) [2]; SAV 2, reacting with BcO): 27.125
- slope, m of the line y = m2x+b2 (streptavidin (SAV) [2]; SAV 2, reacting with BcO, x = 1/Temp): -2995.5
- ln(k) (streptavidin (SAV) [2]; SAV, 10 (283.15 K)): 16.7
- k(average) (streptavidin (SAV) [2]; SAV, 10 (283.15 K), k (full value)): 1.73E+07
- k(average) (streptavidin (SAV) [2]; SAV, 10 (283.15 K), k (scaled)): 17.3
- ln(k) (streptavidin (SAV) [2]; SAV, 15 (288.15 K)): 16.8
- k(average) (streptavidin (SAV) [2]; SAV, 15 (288.15 K), k (full value)): 2.00E+07
- k(average) (streptavidin (SAV) [2]; SAV, 15 (288.15 K), k (scaled)): 20
- ln(k) (streptavidin (SAV) [2]; SAV, 20 (293.15 K)): 17.0
- k(average) (streptavidin (SAV) [2]; SAV, 20 (293.15 K), k (full value)): 2.40E+07
- k(average) (streptavidin (SAV) [2]; SAV, 20 (293.15 K), k (scaled)): 24
- ln(k) (streptavidin (SAV) [2]; SAV, 25 (298.15 K)): 17.2
- k(average) (streptavidin (SAV) [2]; SAV, 25 (298.15 K), k (full value)): 3.03E+07
- k(average) (streptavidin (SAV) [2]; SAV, 25 (298.15 K), k (scaled)): 30.3
- Ea^Forward (streptavidin (SAV) [2]; SAV, pH 8): 6.2 ± 0.4 kcal/mol
- ΔG^ǂ (streptavidin (SAV) [2]; SAV, pH 8, forward): 3.9 ± 0.4 kcal/mol
- ΔS^ǂ (streptavidin (SAV) [2]; SAV, pH 8, forward): 7.8 ± 0.4 cal/°K·mol
- kcal/mol (from Arrhenius slope) (streptavidin (SAV) [2]; SAV, ph8): -9583
- slope (Arrhenius linear fit) (streptavidin (SAV) [2]; SAV, ph8): -4823.1
- kon (streptavidin (SAV) [2]; pH 8, SAV, pH 8, 10°C, read-out: kon): 1.73e+07 ± 600000 M⁻¹ s⁻¹
- kon (streptavidin (SAV) [2]; pH 8, SAV, pH 8, 15°C, read-out: kon): 2e+07 ± 1.2e+06 M⁻¹ s⁻¹
- kon (streptavidin (SAV) [2]; pH 8, SAV, pH 8, 20°C, read-out: kon): 2.4e+07 ± 1.6e+06 M⁻¹ s⁻¹
- kon (streptavidin (SAV) [2]; pH 8, SAV, pH 8, 25°C, read-out: kon): 3.03e+07 ± 2e+06 M⁻¹ s⁻¹
- half-time of association, rF¯(t) (streptavidin (SAV) [2]; SAV 200 nM, pH 8, 10°C): 202 ms
- half-time of association, rF¯(t) (streptavidin (SAV) [2]; SAV 200 nM, pH 8, 15°C): 111 ms
- half-time of association, rF¯(t) (streptavidin (SAV) [2]; SAV 200 nM, pH 8, 20°C): 79 ms
- kon (streptavidin (SAV) [2]; read-out: kon, mono-exponential fit of F¯(t), BcO 20 nM, SAV 200 nM, 10°C): 1.73e+07 M⁻¹ s⁻¹
- kon (streptavidin (SAV) [2]; read-out: kon, mono-exponential fit of rF¯(t), BcO 20 nM, SAV 200 nM, 10°C): 1.72e+07 M⁻¹ s⁻¹
- kon (streptavidin (SAV) [2]; read-out: kon, mono-exponential fit of uncorrected anisotropy r¯(t), BcO 20 nM, SAV 200 nM, 10°C, ill-fitted signal): 1.04e+07 M⁻¹ s⁻¹
- Dynamic Quantum Yield Φ (streptavidin (SAV) [3]; SAV complex (AB1)): 0.83 ± 0.02
- Fraction of Non-Statically Quenched Dye 1-S (streptavidin (SAV) [3]; SAV complex (AB1)): 0.25 ± 0.02
- Natural Lifetime τ° (streptavidin (SAV) [3]; SAV complex (AB1)): 4.8 ± 0.1
- 1-S (4) = QY/F, fraction of non-statically quenched molecules (streptavidin (SAV) [3]; complex with SAV): 0.25 and 0.25 ± 0.02
- F (3) = Sat/t° (streptavidin (SAV) [3]; complex with SAV): 0.83 ± 0.02
- S (streptavidin (SAV) [3]; complex with SAV): 0.75
- t° (2), intrinsic lifetime of the fluorescence dye (streptavidin (SAV) [3]; complex with SAV): 4.8 ± 0.1
- Dynamic Quantum Yield Φ (avidin (AV) [4]; AV complex (AB1)): 0.88 ± 0.02
- Fraction of Non-Statically Quenched Dye 1-S (avidin (AV) [4]; AV complex (AB1)): 0.70 ± 0.03
- Natural Lifetime τ° (avidin (AV) [4]; AV complex (AB1)): 4.9 ± 0.1
- 1-S (4) = QY/F, fraction of non-statically quenched molecules (avidin (AV) [4]; complex with AV): 0.7 and 0.70 ± 0.03
- F (3) = Sat/t° (avidin (AV) [4]; complex with AV): 0.88 ± 0.02
- S (avidin (AV) [4]; complex with AV): 0.3
- t° (2), intrinsic lifetime of the fluorescence dye (avidin (AV) [4]; complex with AV, in ns): 4.9 ± 0.1

Reference: PMC6394990, “Detailed characterization of the solution kinetics and thermodynamics of biotin, biocytin and HABA binding to avidin and streptavidin” (PLoS ONE, 2019)
